Tests used:
Assay in all cases: Test C postemergence
Assay type in all cases: in vivo
[1] = test system: velvetleaf (Abutilon theophrasti)
Summary of the method: (§1)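 Preemergence: seeds sown then treated. Postemergence: plants 2–18 cm, 1- to 4-leaf. Both with surfactant-containing solvent formulation; visual injury scored 0–100 after 12–14 d.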

[2] = test system: Surinam grass (Brachiaria decumbens)
Summary of the method: as §1

[3] = test system: johnsongrass (Sorghum halepense)
Summary of the method: as §1

[4] = test system: kochia (Kochia scoparia)
Summary of the method: as §1

[5] = test system: giant foxtail (Setaria faberii)
Summary of the method: as §1

[6] = test system: crabgrass (Digitaria sanguinalis)
Summary of the method: as §1

[7] = test system: soybean (Glycine max)
Summary of the method: as §1

[8] = test system: woolly cupgrass (Eriochloa villosa)
Summary of the method: as §1

[9] = test system: chickweed (Stellaria media)
Summary of the method: as §1

[10] = test system: common ragweed (Ambrosia elatior)
Summary of the method: as §1

[11] = test system: corn (Zea mays)
Summary of the method: as §1

[12] = test system: cocklebur (Xanthium strumarium)
Summary of the method: as §1

[13] = test system: yellow nutsedge (Cyperus esculentus)
Summary of the method: as §1

[14] = test system: morningglory (Ipomoea hederacea)
Summary of the method: as §1

[15] = test system: goosegrass (Eleusine indica)
Summary of the method: as §1

[16] = test system: pigweed (Amaranthus retroflexus)
Summary of the method: as §1

[17] = Rate 125 g/ha, scale 0 to 100, 0 no effect, 100 complete control
[18] = Rate 250 g/ha, scale 0 to 100 (0 no effect, 100 complete control)
[19] = Rate 500 g/ha, scale 0 to 100 (0 no effect, 100 complete control)

O=C1C(n2ccc(C3CCC3)n2)SCN1c1cccc(OC(F)(F)F)c1 (stereo not shown) [Compound 38]
30: Plant response rating, Johnsongrass [3, 19] | Plant response rating, Crabgrass [6, 19]
20: Plant response rating, Cocklebur [12, 19] | Plant response rating, Morningglory [14, 19]
70: Plant response rating, Kochia [4, 18] | Plant response rating, Kochia [4, 19]
40: Plant response rating, Ragweed, Common [10, 18] | Plant response rating, Ragweed, Common [10, 19]
0: Plant response rating, Velvetleaf ([1]; Rate 62 g/ha, scale 0 to 100) | Plant response rating, Velvetleaf [1, 17] | Plant response rating, Velvetleaf [1, 18] | Plant response rating, Velvetleaf [1, 19] | Plant response rating, Surinam grass ([2]; Rate 62 g/ha, scale 0 to 100) | Plant response rating, Surinam grass [2, 17] | Plant response rating, Surinam grass [2, 18] | Plant response rating, Surinam grass [2, 19] | Plant response rating, Johnsongrass ([3]; Rate 62 g/ha, scale 0 to 100) | Plant response rating, Johnsongrass [3, 17] | Plant response rating, Johnsongrass [3, 18] | Plant response rating, Foxtail, Giant ([5]; Rate 62 g/ha, scale 0 to 100) | Plant response rating, Foxtail, Giant [5, 17] | Plant response rating, Foxtail, Giant [5, 18] | Plant response rating, Foxtail, Giant [5, 19] | Plant response rating, Crabgrass ([6]; Rate 62 g/ha, scale 0 to 100) | Plant response rating, Crabgrass [6, 17] | Plant response rating, Crabgrass [6, 18] | Plant response rating, Soybean ([7]; Rate 62 g/ha, scale 0 to 100) | Plant response rating, Soybean [7, 17] | Plant response rating, Soybean [7, 18] | Plant response rating, Soybean [7, 19] | Plant response rating, Cupgrass, Woolly ([8]; Rate 62 g/ha, scale 0 to 100) | Plant response rating, Cupgrass, Woolly [8, 17] | Plant response rating, Cupgrass, Woolly [8, 18] | Plant response rating, Cupgrass, Woolly [8, 19] | Plant response rating, Chickweed ([9]; Rate 62 g/ha, scale 0 to 100) | Plant response rating, Chickweed [9, 17] | Plant response rating, Chickweed [9, 18] | Plant response rating, Chickweed [9, 19] | Plant response rating, Ragweed, Common ([10]; Rate 62 g/ha, scale 0 to 100) | Plant response rating, Ragweed, Common [10, 17] | Plant response rating, Corn ([11]; Rate 62 g/ha, scale 0 to 100) | Plant response rating, Corn [11, 17] | Plant response rating, Corn [11, 18] | Plant response rating, Corn [11, 19] | Plant response rating, Cocklebur ([12]; Rate 62 g/ha, scale 0 to 100) | Plant response rating, Cocklebur [12, 17] | Plant response rating, Cocklebur [12, 18] | Plant response rating, Nutsedge ([13]; Rate 62 g/ha, scale 0 to 100) | Plant response rating, Nutsedge [13, 17] | Plant response rating, Nutsedge [13, 18] | Plant response rating, Nutsedge [13, 19] | Plant response rating, Morningglory ([14]; Rate 62 g/ha, scale 0 to 100) | Plant response rating, Morningglory [14, 17] | Plant response rating, Morningglory [14, 18] | Plant response rating, Goosegrass ([15]; Rate 62 g/ha, scale 0 to 100) | Plant response rating, Goosegrass [15, 17] | Plant response rating, Goosegrass [15, 18] | Plant response rating, Goosegrass [15, 19] | Plant response rating, Pigweed ([16]; Rate 62 g/ha, scale 0 to 100) | Plant response rating, Pigweed [16, 17] | Plant response rating, Pigweed [16, 18] | Plant response rating, Pigweed [16, 19]
60: Plant response rating, Kochia ([4]; Rate 62 g/ha, scale 0 to 100) | Plant response rating, Kochia [4, 17]
